# According to article PMC6009892, “A novel series of pyrazole-platinum(II) complexes as potential anti-cancer agents that induce cell cycle arrest and apoptosis in breast cancer cells” (Journal of Enzyme Inhibition and Medicinal Chemistry, 2018):
# Read-outs that look alike come from different tables or passages of the source.
# Columns and labels:
# Type in all cases: cell-based, human
# [1] = system: caspase-9 in MCF-7 breast cancer cells; assay: FLICA caspase-9 activity, flow cytometry, MCF-7; settings: MCF-7, 20 μM, 24 h
# Description: (§1) Caspase-9 activity was measured using the FLICA Caspase 9 Assay Kit (ImmunoChemistry Technologies, Bloomington, MN, USA), according to the manufacturer’s instructions. Briefly, cultured MCF-7 and MDA-MB-231 breast cancer cells (1 × 10^6) were washed with cold PBS twice and re-suspended in buffer. We added 5 µl of diluted FLICA reagent and 2 µl of Hoechst 33342 to 93 µl of cell suspension and mixed by pipetting. The cells were incubated for 60 min at 37°C. After incubation, the cells were washed twice in 400 µl of apoptosis wash buffer and centrifuged at 300 × g. After the last wash, we re-suspended cells in 100 µl of apoptosis wash buffer supplemented with 10 µg/ml PI. Analysis was performed using the BD FACSCanto II flow cytometer, and the results were analysed with FACSDiva software (both from BD Biosciences Systems, San Jose, CA).
# [2] = system: caspase-8 in MCF-7 breast cancer cells; assay: FLICA caspase-8 activity, flow cytometry, MCF-7; settings: MCF-7, 20 μM, 24 h
# Description: as §1, with “Caspase-8 activity was” for “Caspase-9 activity was”, “FLICA Caspase 8 Assay Kit” for “FLICA Caspase 9 Assay Kit”, “we re-suspended the cells in” for “we re-suspended cells in”
# [3] = system: caspase-3 in MDA-MB-231 breast cancer cells; assay: FLICA caspase-3 activity, flow cytometry, MDA-MB-231; settings: MDA-MB-231, 20 μM, 24 h
# Description: as §1, with “Caspase-3 activity was” for “Caspase-9 activity was”, “FLICA Caspase 3 Assay Kit” for “FLICA Caspase 9 Assay Kit”, “Briefly, cultured MDA-MB-231 breast” for “Briefly, cultured MCF-7 and MDA-MB-231 breast”, “we re-suspended the cells in” for “we re-suspended cells in”
# [4] = system: fibroblast cells; assay: MTT cell viability assay, fibroblasts; settings: 5-50 μM, read-out: IC50 (cell viability, MTT)
# Description: (§2) MCF-7, MDA-MB-231 (both human breast cancer cell lines), and fibroblast cells were obtained from American Type Culture Collection (ATCC, Manassas, VA, USA). DMEM and FBS used in a cell culture were from Gibco (USA). Glutamine, penicillin, and streptomycin were obtained from Quality Biologicals Inc. (USA). DMEM media was blended with 50 units/ml of penicillin, 50 μg/ml of streptomycin, 10% of FBS. All cell lines were cultured in 5% CO2 and fully humidified at 37 °C. Cells were cultured in Costar flasks and sub-confluent cells were detached with 0.05% trypsin and 0.02% ethylenediaminetetraacetic acid in calcium-free phosphate-buffered saline (PBS), counted in hemocytometers, and plated at 5 × 10^5 cells/well of six-well plates (Thermo Scientific, New York, NY, USA) in 2 ml of growth medium (DMEM without phenol red with 10% CPSR1). Cells reached about 80% of confluency at day 2, and in most cases such cells were used for the assays.
# (§3) The viability of cultured cells was decided through assaying the reduction of MTT to formazan. In brief, MCF-7, MDA-MB-231, and fibroblast cells line were seeded at an initial density of 1 × 10^5 cells per well. Then, the cells were incubated at 37 °C for 24 h. Subsequently, cultured cells were treated with a medium containing concentrations (5, 10, 20, 30, 40, and 50 μM) of PtPz1–PtPz6 for 24 h and 48 h. After the incubation period, MTT was added into all wells in the final concentration of 0.5 mg/ml. After that, the cells were incubated at 37 °C for 4 h. Then, by removing the medium, 200 μl of DMSO was added to all wells. As a result, insoluble formazan was dissolved in DMSO (0.5%). At 570 nm (630 nm as a reference), the absorbance was measured in an Evolution 201 reader (Thermo Scientific, Waltham, MA).
# [5] = system: caspase-8 in MDA-MB-231 breast cancer cells; assay: FLICA caspase-8 activity, flow cytometry, MDA-MB-231; settings: MDA-MB-231, 20 μM, 24 h
# Description: as §1, with “Caspase-8 activity was” for “Caspase-9 activity was”, “FLICA Caspase 8 Assay Kit” for “FLICA Caspase 9 Assay Kit”, “we re-suspended the cells in” for “we re-suspended cells in”
# [6] = system: MDA-MB-231 breast cancer cells; assay: DNA fragmentation TUNEL assay, MDA-MB-231; settings: MDA-MB-231, 20 μM, 24 h
# Description: (§4) DNA fragmentation associated with apoptosis was examined by the terminal deoxynucleotidyltransferase (TdT)- mediated dUTP nick end labeling (TUNEL) method using a commercial assay kit (APO-Direct Kit; BD Pharmingen, San Diego, CA). After treatment, the cells were fixed with 1% paraformaldehyde in PBS (4°C, 30 min), washed in PBS, and permeabilised with ice-cold 70% ethanol. The APO-Direct Kit TUNEL assay was performed as described by the manufacturer. Briefly, the fixed cells were washed twice using the kit wash buffer, and after centrifugation the supernatant was discarded. The DNA labeling solution (containing TdT enzyme and FITC-dUTP) was added to the cell pellet, and the re-suspended mixture was incubated for 1 h at 37°C with occasional shaking. At the end of incubation time, rinse buffer was added, and after centrifugation the supernatant was discarded. We repeated the cell rinsing with rinse buffer, and then suspended the cell pellet in PI/RNase staining buffer. Cells were incubated at room temperature for 30 min and immediately analysed in a BD FACSCanto II flow cytometer. In total, 10,000 events were collected per test sample. The results were analysed with FACSDiva software (both from BD Biosciences Systems, San Jose, CA). The percentage of cells with distinctive apoptotic DNA strand breaks and distinguished by green fluorescent emission was calculated.
# [7] = system: MCF-7 breast cancer cells; assay: MTT cell viability assay, MCF-7; settings: 5-50 μM, read-out: IC50 (cell viability, MTT)
# Description: as §2, §3
# [8] = system: caspase-9 in MDA-MB-231 breast cancer cells; assay: FLICA caspase-9 activity, flow cytometry, MDA-MB-231; settings: MDA-MB-231, 20 μM, 24 h
# Description: as §1
# [9] = system: MCF-7 breast cancer cells; assay: DNA fragmentation TUNEL assay, MCF-7; settings: MCF-7, 20 μM, 24 h; control 4.0%
# Description: as §4
# [10] = system: MDA-MB-231 breast cancer cells; assay: MTT cell viability assay, MDA-MB-231; settings: 5-50 μM, read-out: IC50 (cell viability, MTT)
# Description: as §2, §3
substance,measurement,setting,value
[Pt2(pyrazole)4(berenil)2]·4HCl·2H2O [PtPz4],percent of cells with active caspase-9,[1],29.7%
same,percent of cells with active caspase-8,[2],30.9%
same,percent of cells with active caspase-3,[3],14.8%
same,IC50,[4]; 24 h incubation,> 50 µM
same,IC50,[4]; 48 h incubation,46 ± 2 µM
same,percent of cells with active caspase-8,[5],29.5%
same,percent of TUNEL positive cells,[6],22.9%
same,IC50,"[7]; MCF-7, 24 h incubation",32 ± 2 µM
same,IC50,"[7]; MCF-7, 48 h incubation",29 ± 2 µM
same,percent of cells with active caspase-9,[8],29.6%
same,percent of TUNEL positive cells,[9],29.4%
same,IC50,"[10]; MDA-MB-231, 24 h incubation",33 ± 3 µM
same,IC50,"[10]; MDA-MB-231, 48 h incubation",29 ± 2 µM
